# Measurements reported in patent publication US8685958B2, “Therapeutic agents” (AstraZeneca AB, priority 2011, dated 2014).
# Test system: human hepatocytes
# Test: Estimation of covalent binding of small molecules to proteins in hepatocytes (fCVB)
# Type: in vitro ADME
# Details: binding of 3H- or 14C-labelled compound to cryopreserved human hepatocytes
# Procedure: Estimation of Covalent Binding of Small Molecules to Proteins in Hepatocytes:
# The assay is based on the modification of a published method (Day, S. H.; Mao, A.; White, R.; Schulz-Utermoehl, T.; Miller, R.; Beconi, M. G. (2005) A semi-automated method for measuring the potential for protein covalent binding in drug discovery. J. Pharmacol. Toxicol. Methods 52, 278-285.). Briefly, cryopreserved human hepatocytes are incubated in the presence of radiolabeled drug candidate in 24-well plates for a pre-determined period to allow sufficient turnover of the parent compound. Following the incubation period, samples are taken out and quenched by cold acetone in order to facilitate precipitation of proteins. […] After solubilization of proteins collected on filter papers, radioactive content and amount of protein is determined to give an estimate of pmol equivalent drug molecule bound per mg protein. In addition to assessing the extent of covalent binding, the turnover of the parent drug is quantified to give an estimate of fraction of metabolites leading to covalent binding (fCVB).
# One aspect of the metabolic profile is the formation of reactive metabolites, where compounds of this invention in general are less prone to form such reactive metabolites. […] An fCVB value can then be calculated.
row,SMILES,fCVB value (fraction of metabolites leading to covalent binding)
1,"COc1ccc(-c2nnc(C(=O)N3CC(Oc4ccc(CN5CC6(CCOC6)C5)cc4)C3)o2)cc1 [Example 5, (3-(4-(6-oxa-2-azaspiro[3.4]octan-2-ylmethyl)phenoxy)azetidin-1-yl)(5-(4-methoxyphenyl)-1,3,4-oxadiazol-2-yl)methanone]",0.0069

# Target: Melanin Concentrating Hormone Receptor 1 (MCHR1) (Homo sapiens (Human), UniProt Q99705)
# Sequence (Q99705 whole entry): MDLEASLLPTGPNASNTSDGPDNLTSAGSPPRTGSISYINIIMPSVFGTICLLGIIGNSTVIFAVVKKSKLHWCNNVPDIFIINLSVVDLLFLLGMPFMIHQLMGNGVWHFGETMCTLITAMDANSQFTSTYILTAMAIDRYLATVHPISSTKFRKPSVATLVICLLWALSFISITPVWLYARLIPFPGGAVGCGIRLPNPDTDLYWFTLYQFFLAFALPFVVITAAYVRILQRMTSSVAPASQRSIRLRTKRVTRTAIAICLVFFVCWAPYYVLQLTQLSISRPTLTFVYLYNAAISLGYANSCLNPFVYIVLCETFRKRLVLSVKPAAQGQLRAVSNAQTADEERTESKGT
# Test: MCHR1 receptor activation assay (GTPγ35S)
# Type: biochemical
# Details: not given
row,IC50 [nM],SMILES
1,58,"O=C(c1nnc(-c2ccccc2)o1)N1CC(Oc2ccc(CN3CCCC34CCOC4)cc2)C1 (centres unmarked) [Example 15, (3-(4-(7-oxa-1-azaspiro[4.4]nonan-1-ylmethyl)phenoxy)azetidin-1-yl)(5-phenyl-1,3,4-oxadiazol-2-yl)methanone]"
2,38,"COc1cc(OC2CN(C(=O)c3nnc(-c4ccc(C(F)F)cc4)o3)C2)ccc1CN1CCCC12COC2 [Example 19, (3-(4-(2-oxa-5-azaspiro[3.4]octan-5-ylmethyl)-3-methoxyphenoxy)azetidin-1-yl)(5-(4-(difluoromethyl)phenyl)-1,3,4-oxadiazol-2-yl)methanone]"
3,70,"O=C(c1nnc(-c2ccccc2)o1)N1CC(Oc2ccc(CN3CCCC34COC4)cc2)C1 [Example 13, (3-(4-(2-oxa-5-azaspiro[3.4]octan-5-ylmethyl)phenoxy)azetidin-1-yl)(5-phenyl-1,3,4-oxadiazol-2-yl)methanone]"
4,19,"O=C(c1nnc(-c2ccccc2)o1)N1CC(Oc2ccc(CN3CCC4(CCOC4)C3)cc2)C1 (centres unmarked) [Example 6, (3-(4-(2-oxa-7-azaspiro[4.4]nonan-7-ylmethyl)phenoxy)azetidin-1-yl)(5-phenyl-1,3,4-oxadiazol-2-yl)methanone]"
5,420,"COc1cc(CN2CCCC23COC3)ccc1OC1CN(C(=O)c2nnc(-c3ccccc3)o2)C1 [Example 17, (3-(4-(2-oxa-5-azaspiro[3.4]octan-5-ylmethyl)-2-methoxyphenoxy)azetidin-1-yl)(5-phenyl-1,3,4-oxadiazol-2-yl)methanone]"
6,18,"Cc1cc(OC2CN(C(=O)c3nnc(-c4ccccc4)o3)C2)ccc1CN1CCC2(CCOC2)C1 (centres unmarked) [Example 10, (3-(4-(2-oxa-7-azaspiro[4.4]nonan-7-ylmethyl)-3-methylphenoxy)azetidin-1-yl)(5-phenyl-1,3,4-oxadiazol-2-yl)methanone]"
7,23,"O=C(c1nnc(-c2ccccc2)o1)N1CC(Oc2ccc(CN3CCC4(CCCO4)C3)cc2)C1 (centres unmarked) [Example 22, (3-(4-(1-Oxa-7-azaspiro[4.4]nonan-7-ylmethyl)phenoxy)azetidin-1-yl)(5-phenyl-1,3,4-oxadiazol-2-yl)methanone]"
8,15,"Cc1cc(OC2CN(C(=O)c3nnc(-c4ccccc4)o3)C2)ccc1CN1CC2(CCOC2)C1 [Example 9, (3-(4-(6-oxa-2-azaspiro[3.4]octan-2-ylmethyl)-3-methylphenoxy)azetidin-1-yl)(5-phenyl-1,3,4-oxadiazol-2-yl)methanone]"
9,23,"COc1ccc(-c2nnc(C(=O)N3CC(Oc4ccc(CN5CCCC56CCOC6)cc4)C3)o2)cc1 (centres unmarked) [Example 14, (3-(4-(7-oxa-1-azaspiro[4.4]nonan-1-ylmethyl)phenoxy)azetidin-1-yl)(5-(4-methoxyphenyl)-1,3,4-oxadiazol-2-yl)methanone]"
10,15,"Cc1cc(OC2CN(C(=O)c3nnc(-c4ccccc4)o3)C2)ccc1CN1CC2(CCCO2)C1 [Example 11, (3-(4-(5-oxa-2-azaspiro[3.4]octan-2-ylmethyl)-3-methylphenoxy)azetidin-1-yl)(5-phenyl-1,3,4-oxadiazol-2-yl)methanone]"
11,34,"COc1cc(OC2CN(C(=O)c3nnc(-c4ccccc4)o3)C2)ccc1CN1CCCC12COC2 [Example 16, (3-(4-(2-oxa-5-azaspiro[3.4]octan-5-ylmethyl)-3-methoxyphenoxy)azetidin-1-yl)(5-phenyl-1,3,4-oxadiazol-2-yl)methanone]"
12,150,"COc1cc(CN2CCCC23COC3)ccc1OC1CN(C(=O)c2nnc(-c3ccc(C(F)F)cc3)o2)C1 [Example 18, (3-(4-(2-oxa-5-azaspiro[3.4]octan-5-ylmethyl)-2-methoxyphenoxy)azetidin-1-yl)(5-(4-(difluoromethyl)phenyl)-1,3,4-oxadiazol-2-yl)methanone]"

row,SMILES,IC50 [nM]
1,"COc1ccc(-c2nnc(C(=O)N3CC(Oc4ccc(CN5CC6(CCOC6)C5)cc4)C3)o2)cc1 [Example 5, (3-(4-(6-oxa-2-azaspiro[3.4]octan-2-ylmethyl)phenoxy)azetidin-1-yl)(5-(4-methoxyphenyl)-1,3,4-oxadiazol-2-yl)methanone]",19
